Data published in ChEMBL document CHEMBL4483862, “Open-source discovery of chemical leads for next-generation chemoprotective antimalarials” (2018).

Test system: Plasmodium berghei
Experiment: Luciferase/luciferin-expressing antifolate-resistant parasites were used to infect a culture of HepG2 cells that were pre-incubated with compounds. Infected hepatocytes emit light due to the luciferase reaction. Assay results are presented as the percent inhibition of light emission compared to control. […]
Format: functional
Details: sporozoite; for IC90: read-out: LUCIFERASE INFECTION ASSAY - IC90
[1] = read-out: LUCIFERASE INFECTION ASSAY - IC50

SMILES	IC90	further results
O=C(CCn1cnc2ccccc2c1=O)Nc1ccc(Br)cn1	4.76 µM	IC50 (HEPG2TOX_HILL_SLOPE 3.2, HEPG2TOX_R_SQUARED 0.878, PBLUC_HILL_SLOPE 4.82, PBLUC_R_SQUARED 0.722, read-out: LUCIFERASE INFECTION ASSAY - IC50): 3.02 µM
O=C(O)Cc1c(-c2ccc3c(c2)OCCO3)nc2ccc([N+](=O)[O-])cc2c1-c1ccccc1	8.54 µM	IC50 (HEPG2TOX_HILL_SLOPE 0.567, HEPG2TOX_R_SQUARED 0.724, PBLUC_HILL_SLOPE 1.12, 2.95, PBLUC_R_SQUARED 0.872, 0.627, read-out: LUCIFERASE INFECTION ASSAY - IC50): 3.34 µM
CCN(C(=O)CSc1nc2cc(C(=O)O)ccc2c(=O)n1Cc1ccccc1)c1ccccc1	> 10 µM	IC50 [1]: > 10 µM
CC(C)c1ccc(NC(=O)N2CCc3nc(NCc4cccc(Oc5ccccc5)c4)ncc3C2)cc1	> 6.69 µM	IC50 [1]: > 6.69 µM
CCCCCCCCCCCCN1C(=O)CSC1c1cccnc1 (configuration not stated)	> 9.47 µM	IC50 [1]: > 9.47 µM
CCN1CCN(c2cc(C(C)(C)C)nc3c(-c4ccccc4)cnn23)CC1	> 9.08 µM	IC50 (PBLUC_HILL_SLOPE 3.68, PBLUC_R_SQUARED 0.383, read-out: LUCIFERASE INFECTION ASSAY - IC50): 6.05 µM
Fc1cccc(Cl)c1CSc1ccc(Cl)c(Cl)c1	> 10.3 µM	IC50 (FFLUC_HILL_SLOPE 1.69, FFLUC_R_SQUARED 0.519, read-out: LUCIFERASE INFECTION ASSAY - IC50): > 10.3 µM
COc1ccccc1CNc1nc(NCc2cccc(OC)c2OC)c2sccc2n1	> 7.56 µM	IC50 (PBLUC_HILL_SLOPE 0.707, PBLUC_R_SQUARED 0.411, read-out: LUCIFERASE INFECTION ASSAY - IC50): 2.69 µM
CCOc1ccc(Nc2nc(-c3c(C)nc4cc(C)ccn34)cs2)cc1	6.99 µM	
Cc1c(-c2ccccc2)nc2ccccc2c1C(=O)OCC(=O)c1cc(C)n(Cc2ccco2)c1C	> 10 µM	IC50 [1]: > 10 µM
O=C(NNC(=O)c1sccc1OCc1ncc(C(F)(F)F)cc1Cl)c1ccccc1	> 7.24 µM	IC50 (PBLUC_HILL_SLOPE 1.3, PBLUC_R_SQUARED 0.614, read-out: LUCIFERASE INFECTION ASSAY - IC50): 4.13 µM
Cc1sc2ncnc(NC(C)c3ccc(-n4ccnc4)cc3)c2c1C (configuration not stated)	> 10 µM	IC50 (HEPG2TOX_HILL_SLOPE 0.71, HEPG2TOX_R_SQUARED 0.913, PBLUC_HILL_SLOPE 1.13, PBLUC_R_SQUARED 0.519, read-out: LUCIFERASE INFECTION ASSAY - IC50): 2.6 µM
CCOC(=O)c1cc(-c2ccccc2)sc1NC(=O)CSc1nnc(-c2cccnc2)n1-c1ccccc1C	> 10 µM	IC50 (PBLUC_HILL_SLOPE 3.21, PBLUC_R_SQUARED 0.715, read-out: LUCIFERASE INFECTION ASSAY - IC50): 6.74 µM
Cc1ccc(C)c(OCC(O)Cn2nc(C)c3ccccc3c2=O)c1C (configuration not stated)	> 10 µM	IC50 [1]: > 10 µM
Cc1ccnc(NC(c2ccccn2)c2ccc3ccc(C)nc3c2O)c1 (configuration not stated)	> 9.26 µM	IC50 (HEPG2TOX_HILL_SLOPE 1.81, HEPG2TOX_R_SQUARED 0.956, PBLUC_HILL_SLOPE 14.5, PBLUC_R_SQUARED 0.453, read-out: LUCIFERASE INFECTION ASSAY - IC50): 8.04 µM
CCc1ccccc1OCC(=O)Nc1cc(Cl)ccc1N1CCN(C)CC1	> 10 µM	IC50 (FFLUC_HILL_SLOPE 16.4, FFLUC_R_SQUARED 0.269, read-out: LUCIFERASE INFECTION ASSAY - IC50): > 10 µM
OCc1cccc(-c2cnc3cnc(-c4ccccc4Oc4ccccc4)cn23)c1	> 8.39 µM	IC50 [1]: > 8.39 µM
Cc1ccccc1N1CCCn2c1nc1c2c(=O)[nH]c(=O)n1C	> 10.6 µM	IC50 [1]: > 10.6 µM
Cc1csc(SCC(=O)c2cc(C)n(-c3ccccc3)c2C)n1	0.219 µM	IC50 (PBLUC_HILL_SLOPE 0.985, PBLUC_R_SQUARED 0.172, read-out: LUCIFERASE INFECTION ASSAY - IC50): 0.0235 µM
c1coc(CC2CCCC2Nc2c3ccccc3nc3ccccc23)c1 (configuration not stated)	1.22 µM	IC50 (PBLUC_HILL_SLOPE 13.4, PBLUC_R_SQUARED 0.585, read-out: LUCIFERASE INFECTION ASSAY - IC50): 1.04 µM
O=c1c2c(-c3ccccc3)csc2nc2c3ccccc3c(NCCO)nn12	> 10 µM	IC50 [1]: > 10 µM
Cc1cccc(NC2=C(Cl)C(=O)c3ccccc3C2=O)c1	1.4 µM	IC50 (HEPG2TOX_HILL_SLOPE 3.88, HEPG2TOX_R_SQUARED 0.992, PBLUC_HILL_SLOPE 14.7, PBLUC_R_SQUARED 0.858, read-out: LUCIFERASE INFECTION ASSAY - IC50): 1.2 µM

SMILES	IC90	further results
CCN(Cc1ccccc1)C(=O)c1cc(-c2ccccc2)nc2c1cnn2CC	> 10 µM	IC50 [1]: > 10 µM
CCNC(=O)c1cc(Cl)c(OCc2ccccc2)c(OC)c1	> 10.3 µM	IC50 (PBLUC_HILL_SLOPE 2.26, PBLUC_R_SQUARED 0.647, read-out: LUCIFERASE INFECTION ASSAY - IC50): 5.81 µM
O=C(O)c1c(CN2CCN(c3ccccc3)CC2)c(O)c2ccccc2c1O	8.28 µM	IC50 (HEPG2TOX_HILL_SLOPE 4.36, HEPG2TOX_R_SQUARED 0.83, PBLUC_HILL_SLOPE 4.96, PBLUC_R_SQUARED 0.0239, read-out: LUCIFERASE INFECTION ASSAY - IC50): 5.31 µM
O=C(O)c1cnc2cc3c(cc2c1O)OCCO3	> 10 µM	IC50 (PBLUC_HILL_SLOPE 2.36, 2.10, PBLUC_R_SQUARED 0.249, 0.136, read-out: LUCIFERASE INFECTION ASSAY - IC50): 7.92 µM
CC(c1ccc(-n2cncn2)cc1)N(C)CC(=O)Nc1ccc(OC(F)(F)F)cc1 (configuration not stated)	> 10 µM	IC50 (PBLUC_HILL_SLOPE 12.9, PBLUC_R_SQUARED 0.556, read-out: LUCIFERASE INFECTION ASSAY - IC50): 9.67 µM
CCC(C)c1ccc(-n2c(SCC(=O)N3c4ccccc4CC3C)nc3ccccc3c2=O)cc1 (configuration not stated)	9.46 µM	IC50 (FFLUC_HILL_SLOPE 26.9, FFLUC_R_SQUARED 0.3, PBLUC_HILL_SLOPE 22.4, PBLUC_R_SQUARED 0.296, read-out: LUCIFERASE INFECTION ASSAY - IC50): 8.58 µM
CS(=O)(=O)c1ccc(-c2cnc(N)c(-c3cccc(O)c3)c2)cc1	3.71 µM	IC50 (PBLUC_HILL_SLOPE 17.6, PBLUC_R_SQUARED 0.332, read-out: LUCIFERASE INFECTION ASSAY - IC50): 3.27 µM
Cc1cc(C(=O)Nc2ccc(Cl)cc2)c(C)n1-c1ccccc1	0.729 µM	IC50 (PBLUC_HILL_SLOPE 1.26, PBLUC_R_SQUARED 0.88, read-out: LUCIFERASE INFECTION ASSAY - IC50): 0.128 µM
Cc1cc(O)cc2c1C(=O)/C(=C/c1ccc(Cl)cc1)O2	8.29 µM	IC50 (HEPG2TOX_HILL_SLOPE 11.8, HEPG2TOX_R_SQUARED 0.8, PBLUC_HILL_SLOPE 6.24, PBLUC_R_SQUARED 0.404, read-out: LUCIFERASE INFECTION ASSAY - IC50): 5.83 µM
Cc1c(N/N=C(/C(=O)Nc2ccccc2)C(=O)c2ccccc2)c(=O)n(-c2ccccc2)n1C	> 10 µM	IC50 (PBLUC_HILL_SLOPE 4.97, PBLUC_R_SQUARED 0.638, read-out: LUCIFERASE INFECTION ASSAY - IC50): 8.09 µM
COc1ccccc1N1CCN(c2ncnc3sc(C)c(-c4ccc(F)cc4)c23)CC1	> 10 µM	IC50 (HEPG2TOX_HILL_SLOPE 0.826, HEPG2TOX_R_SQUARED 0.707, read-out: LUCIFERASE INFECTION ASSAY - IC50): > 10 µM
Cc1cc(C(=O)NC(C)Cc2ccc(Br)cc2)on1 (configuration not stated)	> 10 µM	IC50 [1]: > 10 µM
FC(F)(F)c1cnc(Sc2nc(CN3CCOCC3)nc3scc(-c4ccccc4)c23)c(Cl)c1	> 10 µM	IC50 [1]: > 10 µM
Cc1ccccc1-c1nc2oc3ccccc3c(=O)c2c(=O)n1Cc1ccccc1	5.78 µM	IC50 (PBLUC_HILL_SLOPE 4.15, PBLUC_R_SQUARED 0.52, read-out: LUCIFERASE INFECTION ASSAY - IC50): 3.4 µM
CCCCNC(=O)c1c(NC(=O)C(C)Oc2ccccc2)nc2ccccn12 (configuration not stated)	> 8.67 µM	IC50 (HEPG2TOX_HILL_SLOPE 1.79, HEPG2TOX_R_SQUARED 0.135, PBLUC_HILL_SLOPE 4.23, PBLUC_R_SQUARED 0.241, read-out: LUCIFERASE INFECTION ASSAY - IC50): 6.54 µM
CCCNC(=O)c1c(NC(=O)c2ccc(F)cc2)nc2ccc(C)cn12	> 9.31 µM	IC50 (PBLUC_HILL_SLOPE 1.32, PBLUC_R_SQUARED 0.773, read-out: LUCIFERASE INFECTION ASSAY - IC50): 3.1 µM
CCn1cc(C(=O)OCC(=O)N2N=C3/C(=C/c4ccccc4)CCCC3C2c2ccccc2)c(=O)c2ccc(C)nc21 (configuration not stated)	9.47 µM	IC50 (FFLUC_HILL_SLOPE 4.43, FFLUC_R_SQUARED 0.284, HEPG2TOX_HILL_SLOPE 6.55, HEPG2TOX_R_SQUARED 0.133, PBLUC_HILL_SLOPE 3.84, PBLUC_R_SQUARED 0.345, read-out: LUCIFERASE INFECTION ASSAY - IC50): 5.34 µM
CCN(c1ccc(NC(=O)c2cnccn2)cc1)C(C)C	> 10 µM	IC50 (FFLUC_HILL_SLOPE 1.65, FFLUC_R_SQUARED 0.318, PBLUC_HILL_SLOPE 0.412, PBLUC_R_SQUARED 0.204, read-out: LUCIFERASE INFECTION ASSAY - IC50): > 10 µM
Nc1ncc(-c2ccc(CO)cc2)cc1-c1ccc(F)c(Cl)c1	> 10 µM	IC50 (PBLUC_HILL_SLOPE 12.5, PBLUC_R_SQUARED 0.497, read-out: LUCIFERASE INFECTION ASSAY - IC50): 9.14 µM
Cc1nccc(-c2ccc(NC(=O)c3cc(S(=O)(=O)NCc4ccccc4)ccc3C)cc2)n1	> 10 µM	IC50 (PBLUC_HILL_SLOPE 8.64, PBLUC_R_SQUARED 0.681, read-out: LUCIFERASE INFECTION ASSAY - IC50): 8.33 µM
CCOC(=O)c1cnn(-c2cccc(NC(=O)c3ccc(SC)c([N+](=O)[O-])c3)c2)c1C	> 10 µM	IC50 [1]: > 10 µM
Cn1c(N)c(C(=O)COC(=O)c2ccccc2NCCC2=CCCCC2)c(=O)n(C)c1=O	> 10 µM	IC50 [1]: > 10 µM
